Experimental data reported in the NIST ThermoML archive (doi:10.1021/acs.jced.8b00536).
Numbers after ± are expanded uncertainties.

Experiments:
[1] = Crystal; DSC
[2] = Molar enthalpy of transition or fusion; conditions: Crystal; DSC

| SMILES | Triple point temperature [1] [K] | Molar enthalpy of transition or fusion [2] [kcal/mol] |
| --- | --- | --- |
| c1ccc2cc3cc4ccccc4cc3cc2c1 [2,3-benzanthracene] | 623.75 ± 1.2 | 8.94 ± 0.908 |
| c1ccc(N(c2ccc(-c3ccc(N(c4ccccc4)c4cccc5ccccc45)cc3)cc2)c2cccc3ccccc23)cc1 [N,N'-di(1-naphthyl)-N,N'-diphenyl benzidine] | 551.75 ± 1.2 | 14.1 ± 1.43 |
